Assay results published in patent US8778643B2, “Methods for increasing lipid levels and producing triacylglycerols in algae” (priority 2012, dated 2014).
Structures can show the parent of a compound that is named as a salt. Where two headings read alike, the source gives them in different places.

Legend:
[1] = tested on: Phaeodactylum tricornutum; assay: Microplate assay: growth (absorbance 680 nm) and intracellular lipids (Nile Red fluorescence); assay type: cell-based; settings: for % Inc: increase of lipid production; for % Inc / Nile Red Fluorescence % Increase / % change in abs / % in NR fl: P. tricornutum; for Nile Red Fluorescence % Increase: compounds tested at 200 nM, initial screening, p<0.05
Experimental: Stock cultures were aerated by stirring with bubbling air (homemade manifold with Petco air pump, 2-4% CO2) or by orbital shaking (Thermo Scientific MAXQ 2000) at a constant speed of 150 rpm at 22±3° C. with a 16:8 hour light/dark cycle. Stocks were kept at stationary phase for use. Algae were prepared as dictated by culture center.
Compounds were selected based on reported biological activity in non-microalgae organisms. To ensure that compounds retained their quality, they were stored under advised conditions after purchasing from the manufacturer. Solutions of all assay compounds were prepared as 10 mM stock solutions by dissolving in DMSO in 2-dram amber vials and then stored in darkness −20° C. 96-well PCR plates were used to create a stock plate layout that was then transferred to the algae microplates. A plate map was used to distribute each compound to a well based on molecule name, collection number, and CAS number. For 20 μM and 200 nM assay plates, 10 mM compound stock in DMSO was diluted into plate maps of 5 mM and 50 μM assay stocks, respectively.
All materials for assay experiments were autoclaved before each use to maintain axenic algae cultures. Algae species were checked for homogeneity using a TS-100 light microscope (Nikon, Japan). […] Diluted stock solutions were made immediately prior to use for consistency and optimal plate growth. Cell density was measured on a Thermo Scientific Genesys 10S Vis Spectrophotometer (ThermoFisher, San Jose), using a 1 mL cuvette at 680 nm.
Plates were originally run in triplicate, before replicates were increased to quadruplicate, along with a separate control plate to compare growth. Due to extensive evaporation in exterior wells over time, our unique algae plate layout was designed to use the 60 interior wells out of 96 wells for the experiment. The 36 outer wells were filled with Millipore water and media to prevent evaporation and edge effects in the inner algae wells, as well as serve as blanks. The 60 wells with algae contained a total volume of 251 μL (100 μL of media+DMSO compound stock +150 μL dilute algae stock). For 20 μM and 200 nM assay plates, 10 mM compound stock in DMSO is diluted into plate maps of 5 mM and 50 μM assay stocks, respectively. […] Plates were parafilmed during growth to limit the amount of evaporation that can occur. Plates were numbered, and numerically ordered to ensure they got the same shaker space.
The shakers are kept at a constant shaking of 150 rpm. Ambient temperature is 22±3° C.

Nannochloropsis salina = settings: for Nile Red percent increase: dose-response microplate screen; for % Lipid increase based on Nile red fluorescence intensity / % Increase based on Nile Red Fluorescence Intensity / % Inc / Nile Red Fluorescence % Increase / % change in abs / % in NR fl: N. salina; for % Lipid increase based on Nile red fluorescence intensity: DMSO, t=day 0; for % Increase based on Nile Red Fluorescence Intensity: DMSO delivery, added t=day 0; for % Inc: increase of lipid production; for Nile Red Fluorescence % Increase: compounds tested at 20 μM, initial screening, p<0.05
Nannochloris sp. = assay: Microplate assay: growth (absorbance 680 nm) and intracellular lipids (Nile Red fluorescence); assay type: cell-based; settings: for Absorbance (percent increase) / Nile Red percent increase: initial microplate screen, relative to control
[2] = Nannochloris sp., compounds tested at 200 nM, initial screening, p<0.05
[3] = Nannochloris sp., 49 nM, dissolved in water, added t=day 0
[4] = Nannochloris sp., compounds tested at 20 μM, initial screening, p<0.05
[5] = 200 nM, initial microplate screen, relative to control

O=c1c(-c2ccc(O)cc2)coc2cc(O)cc(O)c12 [Genistein, 5,7-Dihydroxy-3-(4-hydroxyphenyl)chromen-4-one]
% increase (lipid production) ([1]; 54 nM-40 μM (H2O)): 16-70%
% increase (lipid production) (Nannochloropsis salina; […]-40 μM): 11-85%

O=C1O[C@H]([C@@H](O)CO)C(O)=C1O [Ascorbic acid, (2R)-2-[(1S)-1,2-dihydroxyethyl]-3,4-dihydroxy-2H-furan-5-one]
% Inc ([1]; best conc. 10 nM): 57.28%

CC/C=C\C[C@H]1C(=O)CC[C@@H]1CC(=O)O [Jasmonic acid, (1R,2R)-3-Oxo-2-(2Z)-2-pentenyl-cyclopentaneacetic acid]
Absorbance (percent increase) (Nannochloris sp.; 200 nM): −7.6%
Nile Red percent increase (Nannochloris sp.; 200 nM): 87.5%
Nile Red Fluorescence % Increase (Nannochloris sp.; [2]): 80.5%

COc1ccc2c(c1)c(CC(=O)O)c(C)n2C(=O)c1ccc(Cl)cc1 [Indomethacin, 1-(4-Chlorobenzoyl)-5-methoxy-2-methyl-3-indoleacetic acid]
% Increase based on Nile Red Fluorescence Intensity (Nannochloris sp.; [3]): 81%
Nile Red percent increase (Nannochloropsis salina; 55 nM): 118%
% Lipid increase based on Nile red fluorescence intensity (Nannochloropsis salina; 123.5 nM): 61%
% Increase based on Nile Red Fluorescence Intensity (Nannochloropsis salina; 123.5 nM): 61%

COc1ccc2cc([C@H](C)C(=O)O)ccc2c1 [Naproxen, (S)-(+)-2-(6-Methoxy-2-naphthyl)propionic acid]
% Inc (Nannochloropsis salina; best conc. 156 nM): 67.44%

CCNc1cc(N[C@H]2CC[C@H](O)CC2)nc(Nc2ccc3c(ccn3Cc3ccccc3)c2)n1 [CDK4 I4, trans-4-((6-(ethylamino)-2-((1-(phenylmethyl)-1H-indol-5-yl)amino)-4-pyrimidinyl)amino)-cyclohexanol]
Nile Red percent increase (Nannochloropsis salina; 40 μM): 144%
% Inc (Nannochloropsis salina; best conc. 40 μM): 144.22%

c1ccc(CNc2ncnc3[nH]cnc23)cc1 [Benzylamino Purine]
% Inc ([1]; best conc. 40 μM): 120.94%

CCNc1nc(Cl)nc(NC(C)C)n1 [Atrazane, 1-Chloro-3-ethylamino-5-isopropylamino-2,4,6-triazine]
Absorbance (percent increase) (Nannochloris sp.; 200 nM): −1.7%
Nile Red percent increase (Nannochloris sp.; 200 nM): 86.2%

NC(=O)c1cccc(-c2cccc(OC(=O)NC3CCCCC3)c2)c1 [FAAH Inhibitor II, 3′-Carbamoyl-biphenyl-3-yl-cyclohexylcarbamate]
% Increase based on Nile Red Fluorescence Intensity (Nannochloris sp.): 167%
% Lipid increase based on Nile red fluorescence intensity (Nannochloris sp.; Nannochloris sp., 0.6 nM, (water), t=day 0): 182%
% Increase based on Nile Red Fluorescence Intensity (Nannochloris sp.; Nannochloris sp., 0.2 nM, dissolved in water, added t=day 0): 145%
% Increase based on Nile Red Fluorescence Intensity (Nannochloris sp.; Nannochloris sp., 0.6 nM, dissolved in water, added t=day 0): 182%
% Increase based on Nile Red Fluorescence Intensity (Nannochloris sp.; [3]): 154%
% Increase based on Nile Red Fluorescence Intensity (Nannochloris sp.; Nannochloris sp., 1.3 μM, dissolved in water, added t=day 0): 144%

Indole acetic acid
Nile Red Fluorescence % Increase (Nannochloris sp.): 95.4%

COc1ccc2[nH]cc(CCNC(C)=O)c2c1 [Melatonin, N-Acetyl-5-methoxytryptamine]
% Inc ([1]; best conc. 40 μM): 47.80%

CC(=O)N1CCN(c2ccc(OC[C@H]3CO[C@](Cn4ccnc4)(c4ccc(Cl)cc4Cl)O3)cc2)CC1 (relative stereo) [Ketoconazole, cis-1-Acetyl-4-[4-[[2-(2,4-dichlorophenyl)-2-(1H-imidazol-1-ylmethyl)-1,3-dioxolan-4-yl]methoxy]phenyl]piperazine]
Nile Red Fluorescence % Increase (Nannochloris sp.; [2]): 258.9%
Nile Red Fluorescence % Increase (Nannochloropsis salina): 32.0%

c1coc(CNc2ncnc3nc[nH]c23)c1 [Kinetin, N^6-furfuryladenine]
Nile Red Fluorescence % Increase [1]: 25.2%
% Inc ([1]; best conc. 39 nM): 76.29%
Absorbance (percent increase) (Nannochloris sp.; 200 nM): −9.0%
Nile Red percent increase (Nannochloris sp.; 200 nM): 72.4%

O=C(Oc1ccc([N+](=O)[O-])cc1)N1CCC(C(O)(c2ccc3c(c2)OCO3)c2ccc3c(c2)OCO3)CC1 [JZL 184 hydrate, 4-nitrophenyl-4-[bis(1,3-benzodioxol-5-yl)(hydroxy)methyl]piperidine-1-carboxylate]
% change in abs (Nannochloropsis salina; 3.3 μM): −12.15%
% in NR fl (Nannochloropsis salina; 3.3 μM): 95.70%
% change in abs (Nannochloropsis salina; 10 μM): 13.75%
% in NR fl (Nannochloropsis salina; 10 μM): 86.72%
% change in abs (Nannochloropsis salina; 40 μM): 0.61%
% in NR fl (Nannochloropsis salina; 40 μM): 118.99%
% Lipid increase based on Nile red fluorescence intensity (Nannochloropsis salina; 40 μM): 119%
% Increase based on Nile Red Fluorescence Intensity (Nannochloropsis salina; 40 μM): 119%

CC[C@H](CO)Nc1nc(NCc2ccccc2)c2ncn(C(C)C)c2n1 [Roscovitine]
Nile Red Fluorescence % Increase (Nannochloris sp.): 30.8%

CC/C=C\CC1C(=O)CCC1CC(=O)OC (centres unmarked) [Methyl jasmonate]
% Lipid increase based on Nile red fluorescence intensity (Nannochloropsis salina; 13 nM): 85%
% Increase based on Nile Red Fluorescence Intensity (Nannochloropsis salina; 13 nM): 85%

O=C1C(Cl)=C(NCCN2CCOCC2)C(=O)c2ncccc21 [CDC25]
Nile Red Fluorescence % Increase (Nannochloris sp.; [2]): 28.2%
Nile Red Fluorescence % Increase (Nannochloris sp.; [4]): 130.9%

O=c1cc(-c2ccc(O)cc2)oc2cc(O)cc(O)c12 [Apigenin, 5,7-Dihydroxy-2-(4-hydroxyphenyl)-4H-1-benzopyran-4-one]
Absorbance (percent increase) (Nannochloris sp.; 20 μM): −7.3%
Nile Red percent increase (Nannochloris sp.; 20 μM): 59.9%
Nile Red Fluorescence % Increase (Nannochloris sp.; [4]): 136.7%
Nile Red Fluorescence % Increase (Nannochloropsis salina): 34.3%
% Inc (Nannochloropsis salina; best conc. 39 nM): 90.17%

Cc1ncc(C[n+]2csc(CCO)c2C)c(N)n1 [Thiamine, Aneurine hydrochloride, Vitamin B1 hydrochloride]
Absorbance (percent increase) (Nannochloris sp.; 200 nM): −12.1%
Nile Red percent increase (Nannochloris sp.; 200 nM): 122.6%

O=C1Cc2c([nH]c3ccc(Br)cc23)-c2ccccc2N1 [Kenpaullone, 9-Bromo-7,12-dihydro-indolo[3,2-d][1]benzazepin-6(5H)-one]
Absorbance (percent increase) (Nannochloris sp.; 200 nM): −8.1%
Nile Red percent increase (Nannochloris sp.; 200 nM): 77.5%
Nile Red Fluorescence % Increase (Nannochloris sp.; [4]): 97.7%
Nile Red Fluorescence % Increase (Nannochloropsis salina): 34.8%

O=C(O)CC(O)(CC(=O)O)C(=O)O [Citric acid, 2-hydroxypropane-1,2,3-tricarboxylic acid]
Absorbance (percent increase) (Nannochloris sp.; 200 nM): −6.5%
Nile Red percent increase (Nannochloris sp.; 200 nM): 55.41%

O=C1Cc2c([nH]c3ccc(Br)cc23)-c2ccccc2N1 [Kenpaulllone]
Nile Red Fluorescence % Increase (Nannochloris sp.; [2]): 84.2%

c1ccc(CNc2ncnc3nc[nH]c23)cc1 [Benzylaminopurine, N-(phenylmethyl)-7H-purin-6-amine]
Absorbance (percent increase) [1, 5]: −14.6%
Nile Red percent increase [1, 5]: 105.9%
Nile Red Fluorescence % Increase [1]: 105.9%

C=C1C[C@]23C[C@@]1(O)CC[C@H]2[C@@]12C=C[C@H](O)[C@@](C)(C(=O)O1)[C@H]2[C@@H]3C(=O)O [Giberellic acid, (3S,3aS,4S,4aS,6S,8aR,8bR,11S)-6,11-Dihydroxy-3-methyl-12-methylene-2-oxo-4a,6-ethano-3,8bprop-1-enoperhydroindeno[1,2-b]furan-4-ca]
Absorbance (percent increase) (Nannochloris sp.; 200 nM): −1.1%
Nile Red percent increase (Nannochloris sp.; 200 nM): 70.4%

Oc1cc(O)c2c(c1)O[C@H](c1ccc(O)c(O)c1)[C@@H](O)C2 [(+)-Catechin, (2R,3S)-2-(3,4-dihydroxyphenyl)-3,4-dihydro-2H-chromene-3,5,7-triol]
% Inc (Nannochloropsis salina; best conc. 39 nM): 84.21%

CCCCCCCCCCCCCCCC(=O)C(F)(F)F [PTFK, 1,1,1-Trifluoro-2-heptadecanone]
% change in abs ([1]; 13 nM): 3.22%
% in NR fl ([1]; 13 nM): 70.44%
% change in abs ([1]; 41.2 nM): 5.05%
% in NR fl ([1]; 41.2 nM): 67.59%

CC(C)Cc1ccc(C(C)C(=O)O)cc1 (centres unmarked) [Ibuprofen]
Nile Red Fluorescence % Increase (Nannochloris sp.; [4]): 80.2%
Nile Red Fluorescence % Increase (Nannochloropsis salina): 59.0%

C/C=C/C/C=C/CCC(=O)[C@H]1O[C@H]1C(N)=O [Cerulenin, (2R,3S)-3-[(4E,7E)-Nona-4,7-dienoyl]oxirane-2-carboxamide]
Absorbance (percent increase) (Nannochloris sp.; 200 nM): −13.2%
Nile Red percent increase (Nannochloris sp.; 200 nM): 94.6%
Nile Red Fluorescence % Increase (Nannochloris sp.; [2]): 107.9%

CCC(C)Nc1ccc(NC(C)CC)cc1 (centres unmarked) [N,N′-di-sec-butyl-p-phenylenediamine, 1-N,4-N-di(butan-2-yl)benzene-1,4-diamine]
% Inc ([1]; best conc. 156 nM): 39.51%

O=c1c(O)c(-c2ccc(O)c(O)c2)oc2cc(O)cc(O)c12 [Quercetin, 2-(3,4-dihydroxyphenyl)-3,5,7-trihydroxy-4H-chromen-4-one]
Absorbance (percent increase) (Nannochloris sp.; 200 nM): −1.6%
Nile Red percent increase (Nannochloris sp.; 200 nM): 63.5%

Cn1c(=O)c2c(ncn2C)n(C)c1=O [Caffeine, 1,3,7-trimethyl-1H-purine-2,6(3H,7H)-dione]
Absorbance (percent increase) (Nannochloris sp.; 200 nM): −7.5%
Nile Red percent increase (Nannochloris sp.; 200 nM): 60.4%
